Measurements reported in publication PMC4850273 (mBio, 2016).

Target: T1, SGBP-A (Bacteroides ovatus, UniProt A7LXT5)
T1 sequence (A7LXT5 28-546): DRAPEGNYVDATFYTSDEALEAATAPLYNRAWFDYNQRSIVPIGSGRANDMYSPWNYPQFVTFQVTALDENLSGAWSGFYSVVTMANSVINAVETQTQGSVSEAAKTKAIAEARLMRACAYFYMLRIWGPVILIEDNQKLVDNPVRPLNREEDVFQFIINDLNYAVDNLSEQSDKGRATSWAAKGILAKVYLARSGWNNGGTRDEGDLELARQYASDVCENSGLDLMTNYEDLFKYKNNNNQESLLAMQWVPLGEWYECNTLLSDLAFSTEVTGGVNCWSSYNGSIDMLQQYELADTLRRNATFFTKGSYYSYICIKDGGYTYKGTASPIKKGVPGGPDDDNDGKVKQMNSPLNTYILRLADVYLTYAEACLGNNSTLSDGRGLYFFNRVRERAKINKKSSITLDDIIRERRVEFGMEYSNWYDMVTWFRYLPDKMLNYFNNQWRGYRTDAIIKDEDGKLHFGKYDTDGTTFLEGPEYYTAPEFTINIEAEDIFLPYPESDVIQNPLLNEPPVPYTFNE
Assay: ITC
Type: binding
Details: 25 °C, 20 mM HEPES, 100 mM NaCl, pH 7.0; two titrations

SMILES: OC[C@H]1O[C@@H](O[C@H]2[C@H](O)[C@@H](O)[C@H](O[C@H]3[C@H](O)[C@@H](O)[C@H](O[C@H]4[C@H](O)[C@@H](O)[C@H](O[C@H]5[C@H](O)[C@@H](O)[C@H](O[C@H]6[C@H](O)[C@@H](O)C(O)O[C@@H]6CO)O[C@@H]5CO)O[C@@H]4CO)O[C@@H]3CO)O[C@@H]2CO)[C@H](O)[C@@H](O)[C@@H]1O (stereo partly shown) [Cellohexaose]
- Ka (M^-1) / SGBP-A: 568.0 ± 291.0
